ChEMBL document CHEMBL2095176, “GSK Tuberculosis Screening Data”
≈ marks a conversion by molar mass, not a printed value.

Test system: Mycobacterium tuberculosis variant bovis BCG
Assay: microbe, parasite or virus in culture
Assay type: functional

Row | SMILES | MIC90
1 | Cc1nnc(NCc2cccc(Cl)c2)c2ccccc12 | 1.5 µM (≈ 0.426 µg/mL)
2 | CCCCC1=NN(C(=O)c2ccncc2)C(O)(C(F)(F)F)C1 (stereo unspecified) | 5.5 µM (≈ 1.73 µg/mL)
3 | Oc1cc(CSc2ccc(Cl)cc2)nc(-c2ccccn2)n1 | 5.3 µM (≈ 1.75 µg/mL)
4 | O=C(Nc1nnc(-c2ccc(Cl)cc2)o1)c1cccc(C(F)(F)F)c1 | 5.3 µM (≈ 1.95 µg/mL)
5 | Cc1ccc(-n2cc3c(-c4ccc(Cl)cc4)nnc(C)c3n2)cc1 | 5.7 µM (≈ 1.91 µg/mL)
6 | Cc1cc(O)nc(-n2nc(C)cc2NC(=O)c2cc3ccccc3o2)n1 | 6.2 µM (≈ 2.17 µg/mL)
7 | c1ccc(-c2nnc(Sc3ccnc(N4CCN(c5ccncc5)CC4)n3)n2CCCN2CCOCC2)nc1 | 4.6 µM (≈ 2.51 µg/mL)
8 | CN(C)c1ccc(NC(=O)Nc2ccccc2C(F)(F)F)cc1 | 6.4 µM (≈ 2.07 µg/mL)
9 | O=S(=O)(CCNCC1CC1)c1cccc(Nc2ccc(-c3cccc(F)c3)cn2)c1 | 5.3 µM (≈ 2.26 µg/mL)
10 | Cc1cccc(-c2nc(C(=O)Nc3ccnc4ncnn34)cs2)c1 | 5.3 µM (≈ 1.78 µg/mL)
11 | COc1ccc(NC(=O)N2CCCN(c3nc4c(C)c(C)ccc4cc3C#N)CC2)cc1 | 5.3 µM (≈ 2.28 µg/mL)
12 | c1coc(-c2nnc(Sc3ccnc(N4CCN(c5ccncc5)CC4)n3)n2CCN2CCOCC2)c1 | 5.3 µM (≈ 2.75 µg/mL)
13 | O=C(NNC(=O)c1cccs1)c1csc(COc2ccccc2Cl)n1 | 5.3 µM (≈ 2.09 µg/mL)
14 | COc1cc(C(F)(F)F)nc2ccc(C)c(N)c12 | 9.7 µM (≈ 2.49 µg/mL)
15 | O=C(c1cc2c(s1)CCC2)N1CCN(Cc2ccc3c(c2)OCO3)CC1 | 9.2 µM (≈ 3.41 µg/mL)
16 | Br.Cc1cc(C)cc(OCCCON2C(=N)N=C(N)NC2(C)C)c1 | 7 µM
17 | O=C(CCCOc1ccccc1)Nc1nc(-c2ccccn2)cs1 | 5.4 µM (≈ 1.83 µg/mL)
18 | COc1cc(C2c3c(-c4ccccc4)n[nH]c3C(=O)N2c2ccc(Cl)cc2)ccc1O (stereo unspecified) | 5.4 µM (≈ 2.33 µg/mL)
19 | Cc1ccc(C2CC(C(F)(F)F)n3ncc(C(=O)NCc4ccc5c(c4)OCO5)c3N2)cc1 (stereo unspecified) | 1.9 µM (≈ 0.871 µg/mL)

Row | SMILES | MIC90
20 | c1ccc(CCNc2cc(-c3ccccc3)nc3nncn23)cc1 | 8.1 µM (≈ 2.55 µg/mL)
21 | Cc1cnc(CNCc2ccc(-c3ccc(C(=O)NCCc4ccccc4)c(F)c3)cc2)cn1 | 5.5 µM (≈ 2.5 µg/mL)
22 | Cc1nc(-c2cccnc2)nc(N2CCCN(Cc3ccc(F)cc3)CC2)c1Cl | 5.5 µM (≈ 2.27 µg/mL)
23 | Cc1cc(C(=O)Nc2nc(C)c(C)s2)c2c(C)nn(C(C)C)c2n1 | 5.5 µM (≈ 1.89 µg/mL)
24 | O=C(Nc1nc(-c2ccccn2)cs1)c1cc2c(s1)CCCC2 | 5.5 µM (≈ 1.88 µg/mL)
25 | COc1ccccc1N1CCN(c2cccc3c2nc(/C=C/c2ccncc2)n3C2CCNCC2)CC1 | 5.5 µM (≈ 2.72 µg/mL)
26 | Cc1ccc(-c2nnc3sc(Cc4cccs4)nn23)cc1 | 5.5 µM (≈ 1.72 µg/mL)
27 | CC(C)N1CCN(c2nc(CCN3CCN(c4cccc(C(F)(F)F)c4C#N)CC3)cs2)CC1 | 5.5 µM (≈ 2.71 µg/mL)
28 | Cc1cccc(CC(=N)NCCOc2cccc(Cl)c2)c1 | 5.5 µM (≈ 1.67 µg/mL)
29 | COc1cc(OC)c(C(=O)Nc2cccc3c2CCN(C)C3C)cc1Br (stereo unspecified) | 5.5 µM (≈ 2.31 µg/mL)
30 | O=C(O)C(F)(F)F.c1ccc2c(-c3ccc(CNCC4CCNC4)cc3)cncc2c1 (stereo unspecified) | 7.8 µM
31 | COc1ccc(-n2ncc3c(N4CCNCC4)nc(C4CC4)nc32)cc1 | 5.6 µM (≈ 1.96 µg/mL)
32 | CC(c1nc2ccccc2s1)N(C)C(=O)c1cccc(-n2cnnn2)c1 (stereo unspecified) | 5.6 µM (≈ 2.04 µg/mL)
33 | COc1ccc(-c2ccc(Nc3cccc(S(=O)(=O)CCNCC4CC4)c3)nc2)cn1 | 5.6 µM (≈ 2.46 µg/mL)
34 | CCOc1ccc(C(=O)Nc2nc(-c3ccccn3)cs2)cc1OCC | 5.6 µM (≈ 2.07 µg/mL)
35 | CN(C)c1cc(C(=O)NCC2CCCCC2)ccc1NC(=O)OCc1ccccc1 | 5.6 µM (≈ 2.29 µg/mL)
36 | CCCc1ccc(NC(=O)c2ccc(CN3CCN(Cc4ccsc4)CC3)cc2)cc1 | 5.6 µM (≈ 2.43 µg/mL)
37 | CCOc1cc(OC)c(C(=O)Nc2cccc3c2CCN(C)C3C)cc1Cl (stereo unspecified) | 5.6 µM (≈ 2.18 µg/mL)
38 | CNc1nc(SCC(=O)N(C)Cc2ccc(Cl)s2)nc2ccccc12 | 8.9 µM (≈ 3.5 µg/mL)

Row | SMILES | MIC90
39 | O=C(Nc1ccc2c(c1)OCC(=O)N2Cc1ccccc1Cl)NC1CCCCC1 | 5.7 µM (≈ 2.36 µg/mL)
40 | COc1ccc(-c2cc3nccc(C4CCNCC4)n3n2)cc1 | 5.7 µM (≈ 1.76 µg/mL)
41 | O=C(COc1ccc(-c2ccccc2)cc1)NNC(=O)c1ccncc1 | 5.7 µM (≈ 1.98 µg/mL)
42 | COc1ccc(-c2cnc(Nc3cccc(S(=O)(=O)CCN4CCc5ccccc5C4)c3)nc2)cn1 | 5.7 µM (≈ 2.86 µg/mL)
43 | Cc1cc2cc(C)c(NCCN)nc2cc1C | 5.7 µM (≈ 1.31 µg/mL)
44 | O=C(Nc1nnc(-c2ccccc2)o1)c1ccc(F)cc1 | 5.8 µM (≈ 1.64 µg/mL)
45 | CN(C)S(=O)(=O)c1ccc(C(=O)Nc2nnc(-c3ccc(Cl)s3)o2)cc1 | 5.7 µM (≈ 2.35 µg/mL)
46 | Nc1cc(-c2ccc(Cl)cc2)nn1-c1cccc(C(=O)NCC2CC(=O)N(c3ccccc3)C2)c1 (stereo unspecified) | 5.9 µM (≈ 2.87 µg/mL)
47 | COc1cccc(-c2cc(OC[C@@H]3CCCN3)cnc2-c2cccc(C(F)(F)F)c2)c1 | 5.9 µM (≈ 2.53 µg/mL)
48 | COc1ccccc1C(=O)N(Cc1cccnc1)Cc1cc2c(C)cc(C)cc2nc1Cl | 5.9 µM (≈ 2.63 µg/mL)
49 | COc1ccc(C2CC(=O)N(Cc3cccc(F)c3)c3ccccc3S2)cc1OC (stereo unspecified) | 5.9 µM (≈ 2.5 µg/mL)
50 | Cc1ccc2[nH]c(SCC(=O)NNC(=O)c3cccs3)nc2c1 | 5.9 µM (≈ 2.04 µg/mL)
51 | Cc1cccc(C)c1CNc1c(C(N)=O)cnc2c(C)cccc12 | 5.9 µM (≈ 1.88 µg/mL)
52 | COc1cc(-c2ccccc2)c(Cl)cc1C(=O)Nc1cccc2c1CCN(C)C2 | 5.9 µM (≈ 2.4 µg/mL)
53 | Cc1ccc2c(OC3CCNCC3)cccc2n1 | 5.9 µM (≈ 1.43 µg/mL)
54 | O=C(Nc1nnc(-c2ccc(F)cc2)o1)c1ccc(C(F)(F)F)cc1 | 6 µM (≈ 2.11 µg/mL)
55 | COc1cc(CN2CCCC(c3cc(C(F)(F)F)n4nc(C)cc4n3)C2)ccc1O (stereo unspecified) | 6 µM (≈ 2.52 µg/mL)
56 | COc1ccc(Nc2nc(CN3CCN(Cc4cc(=O)n5ccsc5n4)CC3)cs2)cc1 | 6 µM (≈ 2.81 µg/mL)
